# Source: ChEMBL document CHEMBL1938312, “Design and combinatorial synthesis of a novel kinase-focused library using click chemistry-based fragment assembly” (Bioorg Med Chem Lett, 2012)
# The source made the active and inactive calls. The calls are words filed in the database; no cut-off is given here.
# Legend:
# [1] = target: Tyrosine-protein kinase SYK (Homo sapiens) (UniProt P43405); assay: Inhibition of SYK at 10 uM by colorimetric analysis
# [2] = target: Protein-tyrosine kinase 2-beta (Homo sapiens) (UniProt Q14289); assay: Inhibition of PYK2 at 10 uM by colorimetric analysis
# Sequence of Protein-tyrosine kinase 2-beta (Homo sapiens) (Q14289 whole entry, looked up): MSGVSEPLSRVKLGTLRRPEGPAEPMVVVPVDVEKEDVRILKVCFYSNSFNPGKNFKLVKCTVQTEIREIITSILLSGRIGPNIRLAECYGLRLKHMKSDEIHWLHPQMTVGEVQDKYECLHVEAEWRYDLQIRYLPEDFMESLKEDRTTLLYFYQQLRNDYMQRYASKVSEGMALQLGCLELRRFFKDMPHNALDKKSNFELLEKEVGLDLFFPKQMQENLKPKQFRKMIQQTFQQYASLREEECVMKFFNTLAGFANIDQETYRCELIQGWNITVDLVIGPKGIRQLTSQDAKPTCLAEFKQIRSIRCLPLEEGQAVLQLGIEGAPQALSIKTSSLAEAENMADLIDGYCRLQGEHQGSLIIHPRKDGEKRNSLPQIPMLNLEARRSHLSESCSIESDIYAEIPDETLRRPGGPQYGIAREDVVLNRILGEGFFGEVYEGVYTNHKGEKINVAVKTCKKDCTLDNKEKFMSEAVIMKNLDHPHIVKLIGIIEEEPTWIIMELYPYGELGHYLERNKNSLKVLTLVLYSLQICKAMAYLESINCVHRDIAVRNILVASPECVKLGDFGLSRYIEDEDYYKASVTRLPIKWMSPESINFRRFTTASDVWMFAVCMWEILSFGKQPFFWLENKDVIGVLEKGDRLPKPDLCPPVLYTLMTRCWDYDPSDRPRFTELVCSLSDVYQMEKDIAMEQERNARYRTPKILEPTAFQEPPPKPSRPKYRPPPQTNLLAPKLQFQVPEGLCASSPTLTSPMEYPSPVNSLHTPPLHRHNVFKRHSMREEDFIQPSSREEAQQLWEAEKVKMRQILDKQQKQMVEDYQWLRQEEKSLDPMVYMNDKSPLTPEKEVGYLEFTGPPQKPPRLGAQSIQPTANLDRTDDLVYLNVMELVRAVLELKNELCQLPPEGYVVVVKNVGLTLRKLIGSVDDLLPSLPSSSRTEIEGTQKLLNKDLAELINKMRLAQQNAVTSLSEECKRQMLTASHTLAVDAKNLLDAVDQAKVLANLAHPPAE
# [3] = target: T1, Inhibitor of nuclear factor kappa-B kinase subunit beta (Homo sapiens) (UniProt O14920); assay: Inhibition of IKK-beta at 10 uM by colorimetric analysis
# T1 sequence (whole entry): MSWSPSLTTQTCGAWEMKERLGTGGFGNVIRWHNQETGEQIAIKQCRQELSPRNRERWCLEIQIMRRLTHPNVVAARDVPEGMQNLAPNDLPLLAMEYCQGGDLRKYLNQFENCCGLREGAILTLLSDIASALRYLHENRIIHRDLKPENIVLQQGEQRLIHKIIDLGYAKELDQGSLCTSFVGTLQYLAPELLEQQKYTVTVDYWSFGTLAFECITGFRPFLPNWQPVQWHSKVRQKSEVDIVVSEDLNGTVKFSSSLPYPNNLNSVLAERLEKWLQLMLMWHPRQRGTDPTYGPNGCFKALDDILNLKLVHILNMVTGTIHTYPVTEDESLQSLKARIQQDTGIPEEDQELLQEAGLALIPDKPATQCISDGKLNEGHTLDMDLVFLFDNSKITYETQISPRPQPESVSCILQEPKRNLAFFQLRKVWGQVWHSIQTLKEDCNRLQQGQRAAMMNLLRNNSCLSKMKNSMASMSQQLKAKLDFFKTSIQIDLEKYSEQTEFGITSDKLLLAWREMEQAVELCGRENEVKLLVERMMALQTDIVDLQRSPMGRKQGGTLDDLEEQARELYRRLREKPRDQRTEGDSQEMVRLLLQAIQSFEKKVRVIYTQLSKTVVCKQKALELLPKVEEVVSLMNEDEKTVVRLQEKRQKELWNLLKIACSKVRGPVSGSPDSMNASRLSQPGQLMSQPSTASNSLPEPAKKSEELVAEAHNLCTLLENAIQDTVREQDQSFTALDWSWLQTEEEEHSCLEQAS
# [4] = target: Ephrin type-A receptor 2 (Homo sapiens) (UniProt P29317); assay: Inhibition of EPHA2 at 10 uM by colorimetric analysis
# Sequence of Ephrin type-A receptor 2 (Homo sapiens) (P29317 whole entry): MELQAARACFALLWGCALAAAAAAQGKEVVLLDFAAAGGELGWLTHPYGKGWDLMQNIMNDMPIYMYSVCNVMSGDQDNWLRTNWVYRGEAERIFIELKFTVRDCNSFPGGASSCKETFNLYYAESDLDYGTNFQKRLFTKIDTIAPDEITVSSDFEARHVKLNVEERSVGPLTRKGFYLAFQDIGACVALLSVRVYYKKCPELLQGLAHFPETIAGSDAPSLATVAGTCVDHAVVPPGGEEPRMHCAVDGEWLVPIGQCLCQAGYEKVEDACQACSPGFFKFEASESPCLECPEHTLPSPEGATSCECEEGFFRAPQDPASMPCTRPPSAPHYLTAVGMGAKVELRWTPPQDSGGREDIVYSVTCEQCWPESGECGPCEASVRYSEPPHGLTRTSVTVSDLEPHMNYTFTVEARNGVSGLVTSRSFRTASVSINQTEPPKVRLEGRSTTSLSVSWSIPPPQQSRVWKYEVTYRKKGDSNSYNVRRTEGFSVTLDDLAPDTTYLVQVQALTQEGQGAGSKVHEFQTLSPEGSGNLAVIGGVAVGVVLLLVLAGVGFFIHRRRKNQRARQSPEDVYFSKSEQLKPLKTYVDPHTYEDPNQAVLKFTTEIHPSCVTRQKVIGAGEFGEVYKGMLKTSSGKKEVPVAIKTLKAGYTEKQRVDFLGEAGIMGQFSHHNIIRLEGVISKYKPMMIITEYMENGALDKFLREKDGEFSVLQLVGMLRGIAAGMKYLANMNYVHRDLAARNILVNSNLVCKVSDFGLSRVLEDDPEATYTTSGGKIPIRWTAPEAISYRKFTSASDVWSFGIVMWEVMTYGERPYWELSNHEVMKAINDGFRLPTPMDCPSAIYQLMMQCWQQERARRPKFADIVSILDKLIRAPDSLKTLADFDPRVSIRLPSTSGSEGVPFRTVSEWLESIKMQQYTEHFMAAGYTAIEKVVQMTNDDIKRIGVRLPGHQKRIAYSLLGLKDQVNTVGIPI
# [5] = target: Protein kinase C alpha type (Homo sapiens) (UniProt P17252); assay: Inhibition of PKCalpha at 10 uM by colorimetric analysis
# [6] = target: T2, Serine/threonine-protein kinase Nek2 (Homo sapiens) (UniProt P51955); assay: Inhibition of NEK2 at 10 uM by colorimetric analysis
# T2 sequence (whole entry): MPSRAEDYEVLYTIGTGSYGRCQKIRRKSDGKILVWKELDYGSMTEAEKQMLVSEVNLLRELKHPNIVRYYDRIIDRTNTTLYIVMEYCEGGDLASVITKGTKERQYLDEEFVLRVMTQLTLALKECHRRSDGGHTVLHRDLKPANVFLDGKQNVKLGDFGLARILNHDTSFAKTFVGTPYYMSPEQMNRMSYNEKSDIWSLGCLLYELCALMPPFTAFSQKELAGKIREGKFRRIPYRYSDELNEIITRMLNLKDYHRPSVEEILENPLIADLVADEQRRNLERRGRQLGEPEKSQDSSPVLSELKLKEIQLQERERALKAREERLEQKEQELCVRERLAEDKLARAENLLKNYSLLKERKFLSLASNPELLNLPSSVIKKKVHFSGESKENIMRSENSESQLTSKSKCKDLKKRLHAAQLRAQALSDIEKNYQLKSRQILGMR
# [7] = target: T3, Ephrin type-B receptor 4 (Homo sapiens) (UniProt P54760); assay: Inhibition of EPHB4 at 10 uM by colorimetric analysis
# T3 sequence (whole entry): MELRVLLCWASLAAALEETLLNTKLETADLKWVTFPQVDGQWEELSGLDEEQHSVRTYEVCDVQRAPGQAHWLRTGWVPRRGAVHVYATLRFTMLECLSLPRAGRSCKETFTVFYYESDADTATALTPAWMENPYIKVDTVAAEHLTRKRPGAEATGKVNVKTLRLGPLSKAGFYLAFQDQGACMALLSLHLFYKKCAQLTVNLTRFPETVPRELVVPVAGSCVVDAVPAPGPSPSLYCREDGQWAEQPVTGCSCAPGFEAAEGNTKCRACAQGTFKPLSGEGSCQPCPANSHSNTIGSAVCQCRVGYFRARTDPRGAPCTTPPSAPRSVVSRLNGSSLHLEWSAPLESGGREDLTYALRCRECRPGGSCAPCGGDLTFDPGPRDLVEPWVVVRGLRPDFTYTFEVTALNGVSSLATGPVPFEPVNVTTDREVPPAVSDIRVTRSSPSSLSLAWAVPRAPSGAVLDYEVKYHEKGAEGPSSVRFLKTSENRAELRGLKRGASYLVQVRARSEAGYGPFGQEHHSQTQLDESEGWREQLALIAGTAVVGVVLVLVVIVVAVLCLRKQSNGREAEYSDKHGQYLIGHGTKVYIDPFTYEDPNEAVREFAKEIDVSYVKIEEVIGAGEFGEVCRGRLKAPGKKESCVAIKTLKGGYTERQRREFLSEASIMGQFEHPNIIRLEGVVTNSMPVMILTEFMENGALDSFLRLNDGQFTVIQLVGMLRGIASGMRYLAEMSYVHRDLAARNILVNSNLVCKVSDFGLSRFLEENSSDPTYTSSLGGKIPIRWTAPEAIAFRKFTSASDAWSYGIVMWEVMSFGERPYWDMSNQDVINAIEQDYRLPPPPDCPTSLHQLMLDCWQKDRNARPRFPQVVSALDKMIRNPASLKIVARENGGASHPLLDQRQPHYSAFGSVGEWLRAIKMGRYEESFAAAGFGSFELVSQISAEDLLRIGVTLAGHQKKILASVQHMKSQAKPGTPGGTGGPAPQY
# [8] = target: Proto-oncogene tyrosine-protein kinase Src (Homo sapiens) (UniProt P12931); assay: Inhibition of SRC at 10 uM by colorimetric analysis
# Sequence of Proto-oncogene tyrosine-protein kinase Src (Homo sapiens) (P12931 2-536 limits assumed): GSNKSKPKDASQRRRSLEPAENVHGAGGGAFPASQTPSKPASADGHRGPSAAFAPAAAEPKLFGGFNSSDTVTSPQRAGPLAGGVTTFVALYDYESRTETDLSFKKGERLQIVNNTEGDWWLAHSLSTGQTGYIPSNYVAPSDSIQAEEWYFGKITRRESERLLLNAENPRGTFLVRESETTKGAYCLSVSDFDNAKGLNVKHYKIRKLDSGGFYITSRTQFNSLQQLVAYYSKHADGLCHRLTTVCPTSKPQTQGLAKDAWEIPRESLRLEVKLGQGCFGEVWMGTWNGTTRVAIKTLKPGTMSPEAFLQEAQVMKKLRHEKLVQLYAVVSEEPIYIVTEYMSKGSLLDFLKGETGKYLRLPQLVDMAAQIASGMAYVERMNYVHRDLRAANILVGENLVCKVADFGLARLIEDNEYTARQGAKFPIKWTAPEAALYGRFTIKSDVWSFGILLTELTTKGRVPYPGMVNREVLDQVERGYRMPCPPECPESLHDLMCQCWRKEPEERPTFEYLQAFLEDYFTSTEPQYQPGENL
# [9] = target: T4, Calcium/calmodulin-dependent protein kinase type IV (Homo sapiens) (UniProt Q16566); assay: Inhibition of CaMK4 at 10 uM by colorimetric analysis
# T4 sequence (whole entry): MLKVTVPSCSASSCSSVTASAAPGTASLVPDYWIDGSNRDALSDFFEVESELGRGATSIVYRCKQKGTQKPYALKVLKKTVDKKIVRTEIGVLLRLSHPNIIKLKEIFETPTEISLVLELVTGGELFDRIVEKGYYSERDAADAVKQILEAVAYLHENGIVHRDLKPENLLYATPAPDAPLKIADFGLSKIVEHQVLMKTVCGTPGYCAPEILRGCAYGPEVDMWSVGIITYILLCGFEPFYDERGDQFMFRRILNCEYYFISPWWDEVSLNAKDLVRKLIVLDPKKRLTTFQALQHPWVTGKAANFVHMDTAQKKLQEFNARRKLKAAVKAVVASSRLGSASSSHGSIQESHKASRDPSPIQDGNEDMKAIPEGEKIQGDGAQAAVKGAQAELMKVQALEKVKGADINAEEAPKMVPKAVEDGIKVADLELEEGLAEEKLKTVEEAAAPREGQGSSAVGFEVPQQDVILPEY
inhibition [1],inhibition [2],inhibition [3],inhibition [4],inhibition [5],inhibition [6],inhibition [7],inhibition [8],inhibition [9],Compound
inactive,inactive,Active,inactive,Active,Active,inactive,inactive,Active,Clc1cccc(-n2cc(-c3ccncc3)nn2)c1
inactive,inactive,Active,inactive,Active,Active,inactive,inactive,Active,Clc1cccc(-n2nncc2-c2ccncc2)c1
inactive,inactive,Active,inactive,Active,Active,inactive,inactive,Active,Clc1ccc(-n2cc(-c3ccncc3)nn2)cc1
inactive,inactive,Active,inactive,Active,Active,inactive,inactive,Active,Clc1ccc(-n2nncc2-c2ccncc2)cc1
